Values joined by “and” are separate entries in the source; they are usually repeats but may differ in a detail not shown here. Equal values may be shown once. Marks after values point to notes of the source that are not given here.
How the values were obtained:
[1] = Single i.v. dose of tariquidar in humans; format: in vivo; details: single i.v. dose of 2 mg/kg, from Cmax
P-gp at the BBB [2] = system: P-gp at the BBB
P-gp [3] = details: read-out: half-maximum inhibition constant (IC50); substrate transport by P-gp in vitro; cited from earlier work
[4] = humans, ref personal communication Dr. U. Elben, Aväant Pharmaceuticals; cited from earlier work
[5] = humans, single i.v. dose of 2 mg/kg, cited from earlier work
P-gp [6] = details: mice, P-gp substrate loperamide, conventional biodistribution; cited from earlier work
P-gp at the BBB [7] = assay: in vivo; details: Wistar Unilever, rat
Metabolism of = details: tariquidar 15 mg/kg i.v.
[8] = 2T4K model, tariquidar 15 mg/kg i.v. 2 h before PET scan (n=5)
[9] = 2T4K model, with vs without tariquidar 15 mg/kg i.v.

**Q.** With `COc1cc2c(cc1OC)CN(CCc1ccc(NC(=O)c3cc(OC)c(OC)cc3NC(=O)c3cnc4ccccc4c3)cc1)CC2` [tariquidar] as the compound, how does the unbound concentration [1] read?
**A.** about 0.012 μM

**Q.** What about the “Increase of K1 after tariquidar, 1T2K model” value (P-gp at the BBB [2]; 1T2K model, tariquidar treatment) of the same compound?
**A.** +632%

**Q.** What about the “DV of (R)-11C-verapamil with tariquidar” value (P-gp at the BBB [2]; [8]) of the same compound?
**A.** 3.68±0.81 mL·mL^−1 and 3.68±0.81 (3) mL·mL^−1

**Q.** And the “K1 of (R)-11C-verapamil with tariquidar” value (P-gp at the BBB [2]; [8])?
**A.** 0.58±0.20 (9) mL·mL^−1·min^−1

**Q.** And the “k2 of (R)-11C-verapamil with tariquidar” value (P-gp at the BBB [2]; [8])?
**A.** 0.27±0.07 (43) min^−1

**Q.** What about the “k3 of (R)-11C-verapamil with tariquidar” value (P-gp at the BBB [2]; [8]) of the same compound?
**A.** 0.37±0.17 (66) min^−1

**Q.** What about the “k4 of (R)-11C-verapamil with tariquidar” value (P-gp at the BBB [2]; [8]) of the same compound?
**A.** 0.66±0.49 (55) min^−1

**Q.** What about the “Relative change of k2” value (P-gp at the BBB [2]; [9]) of the same compound?
**A.** −23%

**Q.** What about the “Relative change of k3” value (P-gp at the BBB [2]; [9]) of the same compound?
**A.** +27%

**Q.** What about the “Relative change of k4” value (P-gp at the BBB [2]; [9]) of the same compound?
**A.** −9%

**Q.** What about the “DV (Logan) of (R)-11C-verapamil with tariquidar” value (P-gp at the BBB [2]; Logan analysis, tariquidar 15 mg/kg i.v. 2 h before PET scan (n=5)) of the same compound?
**A.** 3.53±0.79 (1) mL·mL^−1

**Q.** And the “Relative change of DV (Logan)” value (P-gp at the BBB [2]; Logan analysis, with vs without tariquidar 15 mg/kg i.v.)?
**A.** +1,007^† %

**Q.** And the Emax (P-gp at the BBB [2]; maximum effect (DV) of dose-response fit, estimate±asymptotic standard error)?
**A.** 4.5±3.8

**Q.** What about the “Time of peak uptake of activity in brain after tariquidar injection” value (P-gp at the BBB [2]; scan 2, 0-90 min after tariquidar 15 mg/kg i.v.) of the same compound?
**A.** 32 ± 5 min

**Q.** And the “Brain uptake of activity after tariquidar vs baseline PET scans” value (P-gp at the BBB [2]; tariquidar 15 mg/kg)?
**A.** about 12 fold

**Q.** What about the “Increase of DV of (R)-11C-verapamil after tariquidar vs baseline” value (P-gp at the BBB [2]; tariquidar 15 mg/kg i.v., rat brain) of the same compound?
**A.** 12 fold

**Q.** And the IC50 (P-gp [3])?
**A.** 40 nM and ~40 nM

**Q.** And the “bound to plasma proteins” value [4]?
**A.** 99.5%

**Q.** What about the Tolerability [5] of the same compound?
**A.** well tolerated

**Q.** And the Cmax ([5]; read-out: maximum plasma concentrations (Cmax))?
**A.** ~2300 nM

**Q.** What about the ED50 (P-gp [6]) of the same compound?
**A.** 5.6 mg/kg

**Q.** And the ED50 at 2 h (P-gp at the BBB [7])?
**A.** 8.4 ± 9.5 mg/kg

**Q.** What about the “Effect of tariquidar administration on metabolism of (R)-11C-verapamil” value (Metabolism of) of the same compound?
**A.** essentially left unaffected
